This is an account of results in PubChem BioAssay (NCI).

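Assay format: 96-well plates, 48-hour exposure. TGI: total growth inhibition.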

Experiment in all cases: inhibition of tumour cell growth, NCI panel, 48 h
Test [1] deals with UACC-62 melanoma.
In test [2] the test system is SK-MEL-28 melanoma.
For test [3], the system named is SK-MEL-2 melanoma.
Test [4] deals with SNB-75 CNS.
For test [5], the system named is SNB-19 CNS.
For test [6], the system named is DU-145 prostate.
For test [7], the system named is TK-10 renal.
For test [8], the system named is SN12C renal.
For test [9], the system named is UACC-257 melanoma.
Test [10] deals with HCT-116 colon.
The subject of test [11] is MALME-3M melanoma.
For test [12], the system named is SK-OV-3 ovarian.
Test [13] concerns MCF7 breast.

For the compound `O=C(C[N+]12CN3CN(CN(C3)C1)C2)c1ccc(-c2ccccc2)cc1`, the TGI in [1] was found to be 29.9 µM; in test [2], 37 µM; in test [3], 35.2 µM; in [4], 38.6 µM; in [5], 57.5 µM; in test [6] it was 40 µM. Besides, the TGI in test [7] was 47.3 µM; in test [8] it was 45.1 µM; in test [9], 29.8 µM; in test [10] it was 35.7 µM; in test [11], 39.3 µM.
As to `CN(C(=O)Cc1ccccc1)n1cn[n+](CC(=O)OC(C)(C)C)c1`, the TGI in [1], in [2], in [12], in test [13], in test [5] and in test [6] was over 10 µM in each case. In addition, the TGI in test [7], in test [8], in test [9], in test [10] and in test [11] was over 10 µM each time.
As for `CC(C)c1cc(=O)[nH]c2cc(N)ccc12`, the TGI in test [1], in [2], in [3], in test [4], in [13] and in test [5] was over 100 µM each time. The TGI in test [6], in test [8], in test [9] and in test [10] was over 100 µM each time.
As to `C[N+]1(C)CCCC(C#N)(c2ccccc2)CC1` (stereo unspecified), the TGI in test [2], in [12], in test [4], in test [13], in [5] and in test [6] was over 100 µM in each case. For the same compound, the TGI in test [7], in [9], in [10] and in test [11] was over 100 µM throughout.
Take `Cc1ccc(C)c2c1C1CCCCC3(OCCCO3)C21O` (stereo unspecified): the TGI in test [1], in test [2], in test [12], in test [3], in test [4] and in test [5] was over 100 µM throughout. The TGI in [7], in test [8], in test [9], in test [10] and in test [11] was over 100 µM throughout.
As to `O=C(O)CN1C(=O)c2ccc(NC(=O)C(=O)O)cc2S1(=O)=O`, the TGI in test [1], in test [2], in test [12], in [3], in [13] and in test [5] was over 100 µM each time. Further, the TGI in test [6], in test [7], in [8], in test [9], in [10] and in [11] was over 100 µM throughout.
With `CN(C)C(=O)C(F)(F)C(c1ccccc1)C1C(=O)N(C)C(=O)N(C)C1=O` (stereo unspecified), the TGI in test [1], in test [2], in test [12], in test [3], in [4] and in [13] was over 100 µM in each case. The TGI in [5], in test [6], in test [7], in test [9] and in test [10] was over 100 µM each time.
For `CCOC(=O)C1=C(O)CC(=O)N=C1N1CCCC1`, the TGI in test [1], in test [2], in [12], in [3], in [5] and in [6] was over 100 µM throughout. In addition, the TGI in test [7], in test [8], in test [9], in [10] and in [11] was over 100 µM each time.
Regarding `CNC(=S)N/N=C/C(C)=N/NC(=S)NC`, the TGI in test [1], in [2], in test [12], in test [3], in test [5] and in test [7] was over 100 µM in each case. Further, the TGI in test [8], in test [10] and in [11] was over 100 µM throughout.
As for `C[N+](C)(CCNc1ccc(NCC[N+](C)(C)Cc2ccc([N+](=O)[O-])cc2)c2c1C(=O)c1c(O)ccc(O)c1C2=O)Cc1ccc([N+](=O)[O-])cc1`, the TGI in [1], in test [2], in test [12], in [3], in test [4] and in [6] was over 50 µM throughout. In addition, the TGI in [7], in test [8], in test [9], in [10] and in test [11] was over 50 µM in each case.
Take `COCN1C(=O)[C@@H]2CCCN2C(=O)c2ccc(N)cc21`: the TGI in test [1], in test [2], in test [12], in [3], in test [4] and in test [13] was over 100 µM throughout. In addition, the TGI in test [5], in test [6], in test [7], in test [8], in [9] and in [10] was over 100 µM in each case.
In the case of `CC(=O)N[C@@H](Cc1ccc(O)cn1)C(=O)NCc1ccc(Cl)cc1`, the TGI in test [1], in test [2], in test [12], in [3], in [13] and in test [5] was over 100 µM each time. The TGI in test [6], in [7], in test [8], in [9], in test [10] and in [11] was over 100 µM throughout.
